Measured values as given in US12245998B2 (NACUITY PHARMACEUTICALS, INC., priority 2019, dated 2025).

Key:
[1] = Cohesive strength of HBE airway mucus, peel tester; set-up: species or system human; settings: 200 mM NACA and NAC, 20 mM DTT
Experimental: In the Example 1, the inventors assessed the ability of NACA to reduce the rheological properties of a concentrated (cystic fibrosis-like) mucus, making it more flowable. In this phase, NACA was compared to both a classical clinical reducing agent (N-acetylcysteine; NAC) as well as a potent laboratory reducing agent (Dithiothreitol; DTT). The studies in this phase of the project were performed at a single dose, 200 mM for the mono-thiols NACA and NAC and 20 mM for the di-thiol DTT.
Methods. In this study, a single preparation of human bronchial epithelial (HBE) airway mucus at 5.4% solids (i.e., wet-to-dry ratio) was utilized as the test mucus sample. This sample was thawed on ice and split into 4 separate groups. The appropriate amount of test agent (see above) was added to each mucus sample: (1) PBS (vehicle control), (2) NACA, (3) NAC, and (4) DTT. Samples were incubated for 60 minutes at 37ÀöC prior to analysis. Note, the final mucus concentration of each sample (after test agent addition) was ˜4.9% solids.
The viscoelastic (i.e., rheological) properties of each mucus preparation was made using a cone-and-plate rheometer (DH3; TA Instruments). For each study, 100 ? of sample was loaded onto the rheometer. Stress controlled sweeps (for viscous and elastic modulus determination) were performed over frequencies from 10-2-102 Hz. […]

[2] = Rheology (elasticity, viscosity) of concentrated HBE airway mucus, cone-and-plate rheometer; set-up: species or system human; settings: for elasticity compared with the DTT group / viscosity compared with the DTT group: 200 mM NACA and NAC versus 20 mM DTT, all p<0.05
Experimental: In the Example 1, the inventors assessed the ability of NACA to reduce the rheological properties of a concentrated (cystic fibrosis-like) mucus, making it more flowable. In this phase, NACA was compared to both a classical clinical reducing agent (N-acetylcysteine; NAC) as well as a potent laboratory reducing agent (Dithiothreitol; DTT). The studies in this phase of the project were performed at a single dose, 200 mM for the mono-thiols NACA and NAC and 20 mM for the di-thiol DTT. Methods. In this study, a single preparation of human bronchial epithelial (HBE) airway mucus at 5.4% solids (i.e., wet-to-dry ratio) was utilized as the test mucus sample. This sample was thawed on ice and split into 4 separate groups. The appropriate amount of test agent (see above) was added to each mucus sample: (1) PBS (vehicle control), (2) NACA, (3) NAC, and (4) DTT. Samples were incubated for 60 minutes at 37ÀöC prior to analysis. Note, the final mucus concentration of each sample (after test agent addition) was ˜4.9% solids. The viscoelastic (i.e., rheological) properties of each mucus preparation was made using a cone-and-plate rheometer (DH3; TA Instruments). For each study, 100 ? of sample was loaded onto the rheometer. Stress controlled sweeps (for viscous and elastic modulus determination) were performed over frequencies from 10-2-102 Hz. To assess yield stress, creep-recovery studies were performed at stresses from 0.05 to 1.5 Pa. Next, the cohesive stress of each sample (i.e., how much force it takes to tear the mucus) was obtained using a peel tester (see Button et. al, PNAS 2018). Studies here were performed at a peel rate of 1 mm/sec.

mucins = settings: 20 mM; cited from earlier work
[3] = humans, oral dose of 600 mg; cited from earlier work
WT mice = settings: mouse, in vivo; cited from earlier work
[4] = normal airway surface, pH of 7.0-7.2; cited from earlier work
[5] = maximum tolerated doses (20%); cited from earlier work
[6] = cited from earlier work
[7] = while intubated; cited from earlier work
[8] = oral, treatment periods of approximately 12-24 weeks, patients with chronic bronchitis; cited from earlier work
[9] = biological target: T1, glutamate cysteine ligase (GCL, EC 6.3.2.2) (Homo sapiens, UniProt P48506); settings: read-out: Km of GCL for substrate; cited from earlier work
T1 sequence (P48506 1-637): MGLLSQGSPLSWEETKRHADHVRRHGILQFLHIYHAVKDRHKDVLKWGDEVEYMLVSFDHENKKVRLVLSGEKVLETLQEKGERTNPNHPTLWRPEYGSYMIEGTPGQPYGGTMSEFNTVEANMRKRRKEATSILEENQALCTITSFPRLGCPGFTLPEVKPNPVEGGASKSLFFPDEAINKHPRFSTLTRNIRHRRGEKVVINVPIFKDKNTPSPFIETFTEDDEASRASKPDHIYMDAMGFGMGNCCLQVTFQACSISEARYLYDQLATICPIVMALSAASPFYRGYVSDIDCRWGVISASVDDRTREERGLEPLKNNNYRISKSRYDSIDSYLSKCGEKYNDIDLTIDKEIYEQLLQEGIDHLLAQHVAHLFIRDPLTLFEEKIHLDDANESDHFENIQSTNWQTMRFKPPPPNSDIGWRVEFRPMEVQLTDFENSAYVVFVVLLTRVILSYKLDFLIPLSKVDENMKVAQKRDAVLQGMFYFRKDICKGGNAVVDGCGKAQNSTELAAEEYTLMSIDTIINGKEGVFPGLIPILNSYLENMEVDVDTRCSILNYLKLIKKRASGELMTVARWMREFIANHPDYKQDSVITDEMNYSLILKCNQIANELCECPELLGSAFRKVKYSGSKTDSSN
T1 sequence (P48507 1-274 partner): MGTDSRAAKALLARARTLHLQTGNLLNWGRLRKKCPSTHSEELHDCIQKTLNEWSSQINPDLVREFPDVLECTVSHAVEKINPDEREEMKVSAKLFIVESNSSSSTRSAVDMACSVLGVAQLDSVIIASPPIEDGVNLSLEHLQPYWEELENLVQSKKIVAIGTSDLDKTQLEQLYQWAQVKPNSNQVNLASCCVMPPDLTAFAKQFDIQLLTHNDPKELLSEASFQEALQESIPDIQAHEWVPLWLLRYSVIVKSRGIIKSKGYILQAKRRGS

CC(=O)N[C@@H](CS)C(N)=O
reduction of cohesive strength of mucus ([1]; peel rate 1 mm/sec): very effective
elasticity compared with the DTT group [2]: significantly less than the DTT group
viscosity compared with the DTT group [2]: significantly less than the DTT group
elasticity and viscosity, NACA compared with NAC ([2]; 200 mM dose): no significant difference
reducing the viscoelasticity of mucus ([2]; 200 mM dose): very effective

O[C@H](CS)[C@H](O)CS (racemic) [DTT, Dithiothreitol]
cohesive strength, comparison between test agents [1]: slightly better than NAC and NACA
reduction of mucins (mucins): fully reduce mucins

CC(=O)N[C@@H](CS)C(=O)O [NAC, N-acetyl-L-cysteine]
time after administration at which no NAC is detectable [3]: 10 to 12 h
airway toxicity in WT mice (WT mice): induced epithelial cell damage and acute neutrophilic responses
fraction in the inactive protonated form [4]: 99%
mucus reduction in CF subjects [5]: did not produce mucus reduction
removal of mucus plugs ([6]; high concentrations, delivered topically via bronchoscopy, subjects with CF or tracheostomies): could remove mucus plugs
lung function following inhalation treatment ([6]; inhalation, high NAC concentrations (20%, 1,200 mOsm) aerosolized): modest improvements in lung function
efficacy for atelectasis/mucus plugging [7]: ineffective
elasticity compared with the DTT group [2]: significantly less than the DTT group
viscosity compared with the DTT group [2]: significantly less than the DTT group
risk of adverse effects compared with placebo [8]: without increasing the risk of adverse effects
risk of exacerbations compared with placebo [8]: reduces the risk of exacerbations
symptoms compared with placebo [8]: improves symptoms

N[C@@H](CS)C(=O)O [cysteine, L-cysteine]
Km [9]: 100 to 300 µM

B1: Dornasealfa: mucoactive agent reviewed for adults with acute lung conditions (protein, UniProt P24855 23-282, looked up)
Deoxyribonuclease-1: LKIAAFNIQTFGETKMSNATLVSYIVQILSRYDIALVQEVRDSHLTAVGKLLDNLNQDAPDTYHYVVSEPLGRNSYKERYLFVYRPDQVSAVDSYYYDDGCEPCGNDTFNREPAIVRFFSRFTEVREFAIVPLHAAPGDAVAEIDALYDVYLDVQEKWGLEDVMLMGDFNAGCSYVRPSQWSSIRLWTSPTFQWLIPDSADTTATPTHCAYDRIVVAGMLLRGAVVPDSALPFNFQAAYGLSDQLAQAISDHYPVEVMLK
efficacy for atelectasis/mucus plugging [7]: ineffective
